# Where two headings read alike, the source gives them in different places. Where a SMILES comes first, the peptide text is derived from it. The star is where a group is joined. Cbz = O=C(OCc1ccccc1)*
# Columns and labels:
# [1] = tested on: PKCδ-MARK2-eIF2α signaling pathway; assay type: cell-based, mouse
# Description: Since the phosphorylation of MARK2 at threonine 595 is required for its positive regulation of eIF2α phosphorylation (FIG. 1E), we asked whether this form of phosphorylated MARK2 is regulated upon cytosolic protein misfolding stress.
# The condition of MG132 treatment at 20 μM for 4 h was chosen for optimal induction of eIF2α phosphorylation in the analysis of these MEFs (FIG. 9D). To test whether activation of MARK2 also can be induced by other types of stress, we subjected the cells to oxidative stress, such as sodium arsenite treatment, or ER stress, such as tunicamycin treatment.
# Cells were washed twice with 1× PBS and then lysed and harvested on ice in RIPA solution (50 mM Tris-HCl (pH 7.6); 150 mM NaCl; 1% NP-40; 1% SDS; 100 mM sodium fluoride; 17.5 mM β-glycerophosphate; 0.5% sodium deoxycholate; 10% glycerol). The RIPA buffer was supplemented with EDTA-free protease inhibitor cocktail (Roche, USA), phosphatase inhibitor cocktail 2 and phosphatase inhibitor cocktail 3 (Sigma-Aldrich, USA), 1 μM phenylmethanesulfonyl fluoride, and 2 μM sodium orthovanadate. Lysates were kept cold on ice, pulse-sonicated for 10 min, and then centrifuged at 12,000 g at 4° C. for 10 min. The protein content of each sample was determined by a bicinchoninic acid (BCA) assay (Thermo Fisher). Equal amounts of total protein extract were resolved by SDS-PAGE and transferred to nitrocellulose membranes (Millipore HATF08550, USA). The blots were blocked with 5% w/v BSA and 0.05% NaN3 in TBST and incubated with primary antibodies at 4° C. overnight, then finally incubated with appropriate secondary antibodies.
# [2] = tested on: interaction between PKCδ and HSP90; assay: coimmunoprecipitation of HSP90 by anti-PKCδ antibody in MEFs; assay type: cell-based, mouse; settings: MEF cells treated with MG132
# Description: We next investigated how the PKC&-MARK2-eIF2α signaling pathway senses protein misfolding stress. Since misfolded proteins, including SOD1, are prone to interact with molecular chaperone proteins, Wang et al., 2009; Tummala et al., 2005, we reasoned that the upstream regulator PKCδ could potentially interact with a molecular chaperone and that disruption of this interaction by misfolded proteins during proteotoxic stress might be a mechanism to account for the activation of the PKCδ kinase. We searched a protein-protein interaction database, Szklarczyk et al., 2015, and identified several candidate interactors of PKCδ, including HSP90, HSP90a, and HSP70. To evaluate potential interactions between PKCδ and these molecular chaperones, we performed coimmunoprecipitation experiments with endogenous proteins in MEF cells. After immunoprecipitation of PKCδ, only HSP90 was pulled down by PKCδ (FIG. 3A). When the level of PKCδ protein was elevated via stable expression in MEF cells, more HSP90 protein could be coimmunoprecipitated by PKCδ. Conversely, depletion of PKCδ from MEFs or use of an IgG control instead of the anti-PKCδ antibody abolished the coimmunoprecipitation of HSP90, confirming the specific interaction between PKCδ and HSP90 (FIG. 3A). […]
# [3] = tested on: MARK2; settings: previous report; cited from earlier work
# [4] = target: T1, MARK2 (Mus musculus, UniProt Q05512); assay: cell-based MARK2 kinase activity assay based on eIF2α phosphorylation (immunoblot of MEFs); settings: for activity in inhibiting the phosphorylation of eIF2α: comparison of seven drugs, FIG. 21E; for phosphorylation level of eIF2α-51S: FIG. 21B
# T1 construct: endogenous in cells; host or cells: mouse embryonic fibroblasts (MEFs)
# Description: Cells were washed twice with 1× PBS and then lysed and harvested on ice in RIPA solution (50 mM Tris-HCl (pH 7.6); 150 mM NaCl; 1% NP-40; 1% SDS; 100 mM sodium fluoride; 17.5 mM β-glycerophosphate; 0.5% sodium deoxycholate; 10% glycerol). The RIPA buffer was supplemented with EDTA-free protease inhibitor cocktail (Roche, USA), phosphatase inhibitor cocktail 2 and phosphatase inhibitor cocktail 3 (Sigma-Aldrich, USA), 1 μM phenylmethanesulfonyl fluoride, and 2 μM sodium orthovanadate. Lysates were kept cold on ice, pulse-sonicated for 10 min, and then centrifuged at 12,000 g at 4° C. for 10 min. The protein content of each sample was determined by a bicinchoninic acid (BCA) assay (Thermo Fisher). Equal amounts of total protein extract were resolved by SDS-PAGE and transferred to nitrocellulose membranes (Millipore HATF08550, USA). The blots were blocked with 5% w/v BSA and 0.05% NaN3 in TBST and incubated with primary antibodies at 4° C. overnight, then finally incubated with appropriate secondary antibodies. The antibodies used include those against eIF2α (Cell Signaling 5324, USA), peIF2α (Cell Signaling 9721), PERK (Cell Signaling 3192), pPERK-^980T (Cell Signaling 3179), PKR (Santa Cruz SC-708 and SC-6282), HRI (Millipore 07-728), GCN2 (Cell Signaling 3302), pGCN2-899T (Abcam ab75836, USA), ATF4 (Cell Signaling 11815), HSP90 (Cell Signaling 8165), HSP70 (Cell Signaling 4872), Flag (Sigma F1804), Actin (Santa Cruz SC-47778), Tubulin (Proteintech 10068-1-AP, USA), PKCδ (Santa Cruz SC-937; Cell Signaling 2058), pPKCδ-311Y (Cell Signaling 2055), pPKCδ-^505T (Cell Signaling 9374), MARK2 (Abcam ab135816; Santa Cruz SC-365405), pMARK2-^595T (Abcam ab34751), PP1a (Cell Signaling 2582), pPP1α-^320T (Cell Signaling 2581), and puromycin (Millipore MABE343). Images were captured with an Odyssey imager and analyzed with Image Studio software (Licor 9120, USA).
# [5] = WT and 4-KO MEFs, sodium arsenite 200 μM, 1 h
# T1 sequence (Q05512 whole entry): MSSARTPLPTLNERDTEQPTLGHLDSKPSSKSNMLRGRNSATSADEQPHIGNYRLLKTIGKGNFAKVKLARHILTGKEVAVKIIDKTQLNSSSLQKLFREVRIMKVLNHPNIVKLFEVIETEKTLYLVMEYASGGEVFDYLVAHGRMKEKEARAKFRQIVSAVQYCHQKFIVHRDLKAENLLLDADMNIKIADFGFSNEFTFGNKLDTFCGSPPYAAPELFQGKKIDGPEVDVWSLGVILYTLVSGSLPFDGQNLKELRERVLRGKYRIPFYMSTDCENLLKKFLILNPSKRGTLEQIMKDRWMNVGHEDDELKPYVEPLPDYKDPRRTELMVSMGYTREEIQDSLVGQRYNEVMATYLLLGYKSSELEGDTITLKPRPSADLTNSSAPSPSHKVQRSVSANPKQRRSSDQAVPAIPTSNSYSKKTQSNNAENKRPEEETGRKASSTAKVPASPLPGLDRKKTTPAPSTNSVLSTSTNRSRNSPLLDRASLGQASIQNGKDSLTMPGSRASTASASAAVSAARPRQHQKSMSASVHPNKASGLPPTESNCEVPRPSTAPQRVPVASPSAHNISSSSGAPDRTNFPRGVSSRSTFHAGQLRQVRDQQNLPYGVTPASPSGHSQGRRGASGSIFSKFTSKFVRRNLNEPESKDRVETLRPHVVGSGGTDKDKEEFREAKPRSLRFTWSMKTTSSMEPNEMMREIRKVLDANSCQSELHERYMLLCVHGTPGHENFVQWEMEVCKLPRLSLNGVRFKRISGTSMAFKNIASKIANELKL
compound,measurement,setting,value
tunicamycin,phosphorylation of MARK2-595T,"[1]; MEFs, tunicamycin 24 μg/ml, 2 h",no effect on the phosphorylation of MARK2-^595T
same,phosphorylation of eIF2α-51S,"[1]; WT and 4-KO MEFs, tunicamycin 24 μg/ml, 2 h",induced the phosphorylation of eIF2α-^51S in WT MEFs but not in the cells lacking the 4 previously known kinases
CC(C)C[C@@H](C=O)NC(=O)[C@H](CC(C)C)NC(=O)[C@H](CC(C)C)NC(=O)OCc1ccccc1 [MG132] (Cbz-Leu-Leu-Leu-aldehyde),level of the ATF4 protein,[1]; MEF cells treated with MG132,increased the level of the ATF4 protein
same,levels of phosphorylated MARK2-595T,[1]; MEF cells treated with MG132,substantial increase
same,levels of phosphorylated eIF2α-51S,[1]; MEF cells treated with MG132,corresponding increase
same,time at which phosphorylation of eIF2α-51S peaked,"[1]; MEFs, MG132 20 μM time course",around 4 h
same,interaction between PKCδ and HSP90,[2],completely abolished the interaction between PKCδ and HSP90
Cn1cc(C2=C(c3ccc(Cl)cc3Cl)C(=O)NC2=O)c2ccccc21 [SB216763],MARK kinase function,[3],inhibited MARK kinase function
same,phosphorylation of eIF2α-51S,"[4]; MEFs, 20 μM, 1 hr, versus DMSO control, FIG. 21A",substantially reduces the phosphorylation of eIF2α-^51S
same,increase in the levels of phosphorylated eIF2α-51S in response to MG132,[4]; cell co-treatment with MG132,substantially diminished the increase
same,activity in inhibiting the phosphorylation of eIF2α,[4],high activity for inhibiting eIF2α phosphorylation
same,activity in inhibiting the phosphorylation of eIF2α,[4]; listed as SB-216763,high activity
O=[As]O [sodium arsenite],phosphorylation of MARK2-595T,[1]; [5],able to induce the phosphorylation
same,phosphorylation of eIF2α-51S,[1]; [5],able to induce the phosphorylation
Cc1c[nH]c(-c2cnc(NCCNc3ccc(C#N)cn3)nc2-c2ccc(Cl)cc2Cl)n1 [CHIR99021],phosphorylation level of eIF2α-51S,"[4]; MEFs, 20 μM, 1 hr, versus DMSO control",decreased the phosphorylation level of eIF2α-^51S
same,levels of phosphorylated eIF2α-51S,[4]; at low concentrations,substantially lowering the levels of phosphorylated eIF2α-^51S
same,activity in inhibiting the phosphorylation of eIF2α,[4],high activity
COc1cc2ncnc(Nc3ccc(F)c(Cl)c3)c2cc1OCCCN1CCOCC1 [Gefitinib],phosphorylation level of eIF2α-51S,"[4]; MEFs, 40 μM, 1 hr, versus DMSO control",needs a higher concentration than CHIR99021 to achieve the similar effect
same,activity in inhibiting the phosphorylation of eIF2α,[4],low activity

# — patent US20250186373A1, “TARGETING AN EUKARYOTIC INITIATION FACTOR 2 ALPHA KINASE TO REGULATE TRANSLATION UNDER STRESS” (The Johns Hopkins University, priority 2022, published 2025)
